Patent publication US11248022B2, “Glypican-3 peptide reagents and methods” (THE REGENTS OF THE UNIVERSITY OF MICHIGAN, priority 2017, dated 2022)
Where two headings read alike, the source gives them in different places. Ends that are not written are not given here.

Key:
[1] = system: GPC3 positive tumor (from Hep3B cells); test: In vivo whole body fluorescent imaging of HCC xenograft
Protocol: Mice bearing HCC xenograft tumor (arrowheads) were i.v. injected with 250 μL of 300 μM near NIR GPC3 targeting peptide ALL*-Cy5.5, scrambled control peptide QLE*-Cy5.5 and unlabeled Cy5.5 free dye alone. ALL*-Cy5.5 was also injected in mice bearing GPC3 negative tumor (from SK Hep-1 cells, arrows) as control of EPR effect. Pre-injection imaging confirmed no autofluorescence was present.

[2] = system: advanced HCC; conditions: cited from earlier work
[3] = target: purified recombinant GPC3 core protein (Homo sapiens, UniProt P51654); test: Phage display biopanning; type: binding; conditions: four rounds of biopanning
purified recombinant GPC3 core protein, sequence (P51654 25-554): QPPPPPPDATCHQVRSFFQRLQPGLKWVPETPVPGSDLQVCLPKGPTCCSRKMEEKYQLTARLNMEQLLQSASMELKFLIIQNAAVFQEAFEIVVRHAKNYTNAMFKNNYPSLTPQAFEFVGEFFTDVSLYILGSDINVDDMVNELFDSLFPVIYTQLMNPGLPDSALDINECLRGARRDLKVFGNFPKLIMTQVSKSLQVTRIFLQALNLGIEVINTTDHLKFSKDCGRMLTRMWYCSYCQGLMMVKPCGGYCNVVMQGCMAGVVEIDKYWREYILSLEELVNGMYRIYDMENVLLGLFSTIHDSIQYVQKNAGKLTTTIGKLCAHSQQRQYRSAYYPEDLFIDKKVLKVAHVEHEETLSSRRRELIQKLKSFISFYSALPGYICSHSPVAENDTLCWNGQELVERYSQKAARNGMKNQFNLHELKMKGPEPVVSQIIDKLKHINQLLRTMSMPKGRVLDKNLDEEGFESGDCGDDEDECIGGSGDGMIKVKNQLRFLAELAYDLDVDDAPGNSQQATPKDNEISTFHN
Protocol: A panel of candidate peptides that are specific to GPC3 was identified using phage display technology. Peptide selection was performed using a library of M13 bacteriophage that express ˜10^9 unique clones of each individual sequence [Zhou et al., Clin Transl Gastroenterol, 6:e101 (2015); Joshi et al., Bioconjug Chem, 27:481-494 (2016); Rabinsky et al., Cell Mol Gastroenterol Hepatol, 2:222-237 (2016)]. The library was biopanned against purified recombinant GPC3 core protein immobilized in a 6-well plate. Four rounds of biopanning were performed using decreasing quantity (100, 80, 60, and 40 μg) of GPC3 core protein in successive rounds to increase binding specificity. The bound phages were eluted, amplified, precipitated and tittered using standard protocols, and the enriched clones from the candidate pool were sequenced to identify the lead candidates: ALLANHEELF (SEQ ID NO: 2), GLHTSATNLYLH (SEQ ID NO: 3), SGVYKVAYDWQH (SEQ ID NO: 4) and VGVESCASRCNN (SEQ ID NO: 5).

[4] = system: Hep3B cells; test: Competition for peptide binding on Hep3B cells; type: cell-based, human
Protocol: The specificity of peptide reagent binding was also validated by competition assay. Hep3B cells were grown on cover glass and incubated first with unlabeled peptides over a range of concentrations (0-500 μM), and then with ALL*-Cy5.5 peptide. The fluorescence intensities were measured using confocal microscopy. […] Differences in fluorescence intensity between the ALL*-Cy5.5 peptide reagent and control are significant at concentrations of 50 μM and greater.

[5] = system: Hep3B human HCC cells; test: Confocal microscopy of peptide binding to Hep3B cells; type: cell-based; conditions: Hep3B cells, confocal microscopy
Protocol: (§1) FIGS. 6-2A-Q show validation of specific peptide binding to cells in vitro. […] The Hep3B versus SK-Hep1 difference was also larger for antibody than QLE (P=2.3×10^−8, 6.0-fold larger). Intensity was measured with 6 replicates per condition and fitted to an ANOVA model with terms for 9 means to log-transformed data. […] We further validated specific peptide binding to GPC3 using siRNA knockdown. […] Q) Quantified fluorescence intensities. The siCL vs siGPC3 difference was 7.4 times bigger for ALL than the same difference for QLE (P=7.8×10^−5), and the difference for antibody was 8.9 times bigger than for QLE (P=2.5×10^−5), by ANOVA on log-transformed data. Results are an average of 6 images collected independently.
(§2) On confocal microscopy, it was shown that ALL*-Cy5.5 binds to the surface (arrows) of cells with different levels of GPC3 expression. […] GPC3 is highly overexpressed in Hep3B cell cytosol and membrane while moderately expressed in HepG2 cells. No GPC3 expression is observed in SK-Hep1 cells. Tubulin serves as loading control for either cytosol or membrane fractions loaded.

[6] = target: T1, GPC3 (Homo sapiens, UniProt P51654); test: siRNA knockdown of GPC3 in Hep3B cells, confocal fluorescence; type: cell-based; conditions: Hep3B cells transfected with non-targeting siRNA (siCL)
T1 construct: endogenous in cells; host or cells: Hep3B human HCC cells (siCL control vs siGPC3 knockdown); also HepG2; SK-Hep1 as GPC3-negative control
T1 sequence (P51654 25-554): as above
Protocol: as §1
The specificity of lead candidate peptide reagent binding was validated by siRNA knockdown of GPC3 in human HCC cells. The cells were transfected with siRNA to knockdown cell surface expression of GPC3. […] These cells were transfected with non-targeting siRNA (siCL) for use as control. […] FIG. 6-1D,E show ˜4-fold reduction in fluorescence intensity with both the peptide reagent and anti-GPC3 antibody, respectively, for Hep3B cells transfected with siRNA (siGPC3) to knock down GPC3 expression. […] FIG. 6-2M, N, O and P show the same result as original FIG. 6-1A, B, D and E.

[7] = system: SK-Hep1 xenograft tumors; test: Immunostaining on GPC3 negative SK-Hep1 xenograft sections; parameters: species or system mice; conditions: no GPC3 expression
From the text: FIGS. 18A-D show immunostaining on GPC3 negative HCC xenograft tumor.
(§3) The specimens were also sectioned for collection of confocal images to perform microscopic validation of peptide binding ex vivo.

[8] = system: Hep3B xenograft; test: In vivo NIR laparoscopic imaging of HCC xenograft tumors; parameters: species or system mice; conditions: NIR laparoscope, 2 hours after i.v. injection, n=8
Protocol: Human HCC cells Hep3B and SK-Hep1 were cultured in Eagle's Minimum Essential Medium (EMEM) at 37° C. in 5% CO2, and supplemented with 10% fetal bovine serum (FBS) and 1% penicillin/streptomycin. Western blotting was performed to validate expression level of GPC3. Cells were diluted in growth factor reduced (GFR) Matrigel Matrix (Corning), and injected into one flank of female (to avoid male dominance within a cage) nude athymic mice (nu/nu, Jackson Laboratory) at 4 to 6 weeks of age with weight between 20 to 25 grams. ˜5×10^6 cells were implanted per mouse.
A standard surgical laparoscope (#49003 AA, HOPKINS® II Straight Forward Telescope 0°, Karl Storz) that is ˜10 mm in diameter and has a 31 cm length rigid sheath was adapted to collect reflectance and fluorescence concurrently. Nude mice with human HCC xenograft 2 weeks post implantation were tail vein injected with 200 μL 300 μM GPC3 peptide ALL*-Cy5.5. During imaging, the mice were anesthetized with inhaled isoflurane. We first used laparoscope with white light illumination to exam the xenograft. Laparoscopic images were taken two hours post injection in both fluorescence and reflection mode simultaneously with excitation solid state diode laser (660-S, Toptica Photonics) to deliver excitation at λex=660 nm into the fiber optic light guide. Images were collected at 5 frames/sec with a laser power of 1.2 mW. Hoechst 33342 (H1399, Life Technologies) at a dose of 10 mg/kg diluted in 200 μL of PBS was delivered intravenously via a tail vein injection to stain the cell nuclei 30 minutes before sacrificing the mouse. Xenograft tumors were resected and confocal fluorescence images were collected with Cy5.5 and DAPI filters 50 μm beneath the surface using a confocal microscope (Leica SPSX Upright 2-Photon Confocal Microscope). Following imaging, resected xenografts were fixed and formalin embedded for immunohistochemistry and H&E staining as described previously.
Fluorescence images of mouse HCC xenograft taken at 2 hrs post peptide injection were registered with corresponding reflectance images taken simultaneously. The fluorescence intensity of each pixel in the image was divided by intensity of corresponding pixel in the reflectance image in order to account for the difference in distance between each pixel and the laser source. A heat map image was generated from the resulting ratios at each pixel. Image segmentation was performed automatically by custom Matlab (Mathworks) software program using Ostu's Method [Otsu, Automatica, 11(285-296): 23-27 (1975)]. Target to background ratio of each processed image was calculated by dividing the average intensity of pixels inside the segmented tumor and that of those within 30 pixels outside of segmentation outline.

[9] = system: Hep3B xenograft tumors; test: Ex vivo confocal validation on Hep3B xenograft sections and normal liver; parameters: species or system mice; conditions: normal mouse liver sections
From the text: as §3

[10] = system: HCC xenograft tumor overexpressing GPC3; test: In vivo handheld dual axes confocal endomicroscope imaging; parameters: species or system mice
Protocol: GPC3 expression from human HCC xenograft tumors was evaluated in real time by collecting optical sections in vivo using a handheld 5.5 mm diameter dual axes confocal endomicroscope. A solid-state diode laser (300 mW, CNI Laser Inc.) provided illumination at λex=671 nm. A parabolic mirror focused the illumination and collection beams to overlap below the tissue surface with lateral and axial resolution of 2 and 5 μm, respectively. A compact, 3D monolithic scanner located in the distal tip provided large vertical displacements and wide angular deflections to produce images in the vertical (XZ) and horizontal (XY) planes with a FOV of 1000×430 and 1000×1000 μm^2, respectively. NIR fluorescence is collected and passes through a band pass filter (FF01-716/40-25, Semrock) that transmits from 696-736 nm with >93% efficiency for detection with a photomultiplier tube (PMT, H7422PA-40, Hamamatsu) detector. The peptides were injected via the tail vain, and dissected away the skin overlying the tumor to gain access. The distal tip of the endomicroscope was placed in contact with the tumor using a drop of saline to couple the light. Laser power <2 mW on the tissue was used to avoid photobleaching. NIR fluorescence images were collected at 5 frames per sec. 3D volumetric images were reconstructed from a series of images collected in the vertical plane using Amira software (ver 5.4.3, FEI Corporation).
The probe was small enough to be comfortably held in the surgeon's hand during surgery, FIG. 12A, for in vivo imaging of biomarker expression. Its diameter was 5.5 mm and delivered 671 nm near-infrared laser at 2 mW. Mouse carrying HCC xenograft tumor overexpressing GPC3 was first injected with 250 μL 300 μM ALL*-Cy5.5 peptide intravenously and after 2 hours the probe was held in contact with exposed subcutaneous tumor to acquire in vivo peptide binding images, FIG. 12B. Images were collected in either the vertical or horizontal plane with 430 μm depth or 1000×1000 μm^2 area, respectively, at 5 frames per second. With measured lateral resolution of 2.49 μm and axial resolution of 4.98 μm, each peptide stained cell can be clearly seen (arrows). […] Strong uptake (arrows) of ALL*-Cy5.5 in tumor was captured on optical sections collected in the horizontal (1000×1000 μm^2, Video 1) FIG. 12C and vertical (1000×430 μm^2, Video 2) FIG. 12D planes, respectively. A series of vertical cross-section images were reconstructed into 3D MIP volume (Video 3), FIG. 12E.

[11] = system: HepG2 human HCC cells; test: Confocal microscopy of peptide binding to HepG2 cells; type: cell-based; conditions: HepG2 cells, confocal microscopy
Protocol: as §1, §2

[12] = system: SK-Hep1 cells; test: Confocal microscopy of peptide binding to SK-Hep1 cells; type: cell-based, human
Protocol: as §1, §2

CCN1\C(=C/C=C/C=C/C2=[N+](CCCCCC(=O)O)c3ccc4c(S(=O)(=O)O)cc(S(=O)(=O)O)cc4c3C2(C)C)C(C)(C)c2c1ccc1c(S(=O)(=O)[O-])cc(S(=O)(=O)O)cc21 [free Cy5.5 dye, reference compound]
time of peak uptake/signal post injection ([1]; i.v. injection, whole-body NIR imaging): 0.5 h

CNC(=O)c1cc(Oc2ccc(NC(=O)Nc3ccc(Cl)c(C(F)(F)F)c3)cc2)ccn1 [sorafenib, Sorafenib]
survival duration ([2]; Asian patients): 6.5 months | survival duration ([2]; Caucasian patients): 7.9 months | survival advantage over placebo ([2]; clinic studies (SHARP)): ~3 months

ALLANHEELF
level of enrichment in biopanning [3]: highest level of enrichment

ALLANHEELFQT [ALL*]
effect of unlabeled peptide on ALL*-Cy5.5 fluorescence intensity [4]: dose-dependent decrease | concentration of unlabeled peptide giving significant decrease in ALL*-Cy5.5 binding ([4]; unlabeled peptide 0-500 μM): ≥ 50 µM

QLE*-Cy5.5: scrambled control peptide QLELTFHANLEA (SEQ ID NO: 6) labeled with Cy5.5 via GGGSK linker (QLELTFHANLEAGGGSK-{Cy5.5}) [reference compound]
fluorescence intensity from binding to cell surface [5]: Minimal signal | binding to cell surface [6]: minimal binding | target-to-background (T/B) ratio ([1]; 2 hours post injection, mean±SD): 1.12±0.19 | staining of xenograft sections [7]: No staining | target-to-background (T/B) ratio [8]: 3.0±0.7 | staining of normal mouse liver [9]: Minimal staining | fluorescent intensity at tumor ([10]; 2 hours after i.v. injection, n=8): 16±4 | uptake/staining in tumor on optical sections ([10]; horizontal and vertical planes): Minimal staining | fluorescence intensity from binding to cell surface [11]: Minimal signal | fluorescence intensity from binding to cell surface [12]: Minimal signal

QLELTFHANLEA [QLE*, scrambled (control) peptide, unlabeled, reference compound]
effect of unlabeled peptide on ALL*-Cy5.5 fluorescence intensity [4]: no change

QRH*-Cy5.5: label printed in b35/b133 without definition; apparently a misprint for QLE*-Cy5.5 or ALL*-Cy5.5 (QRHKPREGGGSK; not fully specified (C-terminus); also: Cy5.5 label, site not given here, QRH* code without meaning)
target-to-background (T/B) ratio [8]: 3.0±0.7
